From patent US20020052390A1, “METHODS AND MATERIALS FOR TREATING AND PREVENTING INFLAMMATION OF MUCOSAL TISSUE” (priority 1997, published 2002)
Converted amounts (≈) assume the structure as drawn. “And” between values parts separate entries of the source, which are not always exact repeats. Equal entries are not always repeated. Where two headings read alike, the source gives them in different places. Each block holds one compound with its values, some of them ahead of it.

Tests used:
Trichoderma = assay: MIC, macro broth dilution technique (NCCLS), isolates from rhinosinusitis patients; assay type: cell-based; conditions: 48 hour MIC reading
Description: (§1) The following procedure was used to determine effective antifungal agents as well as effective concentrations of antifungal agents such that the fungal organisms isolated from patients can be prevented from growing or killed.
(§2) Seventeen fungal isolates were collected from eight rhinosinusitis patients and tested for susceptibility against amphotericin B, ketoconazole, and itraconazole. Each antifungal agent was tested on these fungal isolates using the macro broth dilution technique according to the National Committee on Clinical Laboratory Standards (NCCLS) protocol. […] The results from this procedure provided an estimate of the efficacy of antifungal agents against specific fungal isolates in vitro.

Geotrichum = assay: as above; assay type: cell-based; conditions: 48 hour MIC reading
Description: as §1, §2

[1] = test system: fungal organisms within their mucus; assay: Analysis of mucus samples of non-responding patients for resistance; assay type: cell-based; conditions: five of the nine non-responding patients
Excerpt: Eleven of the 53 patients went from endoscopic evaluation stage 2 or 3 to stage 1 after three months. […] Five of the nine non-responding patients had previously collected mucus samples that were available for examination.

[2] = test system: patient with rhinosinusitis; assay: Single patient study, one-sided then two-sided amphotericin B irrigation, RAST assay to Alternaria; assay type: in vivo, human
Excerpt: In addition, the previously detected fungal load in the initially untreated side (right side) was sufficient to eventually cause presentation of visual or palpable rhinosinusitis symptoms in that initially untreated side. Further, the fungal organisms present in the initially untreated side (right side) induced high IgE titers, as shown by IgE readings from the RAST assays, independent of concurrent reduction of fungal organisms by antifungal treatment applied to the left side. In this case, a reduction of IgE readings from the RAST assays was only observed after irrigating both sides with an antifungal agent. Thus, the reduction of IgE and the prevention of disease symptoms coincided with the treatment of both sides with an antifungal agent.

[3] = test system: patients with chronic asthma; assay: Chronic asthma symptoms in patients of the Example 2 study (Example 5); assay type: in vivo, human
[4] = test system: non-invasive fungus-induced rhinosinusitis patients; assay: Itraconazole nasal irrigation (Example 7); assay type: in vivo, human; conditions: for adverse local reaction to nasal irrigations: third patient
Description: Three non-invasive fungus-induced rhinosinusitis patients (person, person, and person) were instructed to perform nasal irrigation with an itraconazole solution. The itraconazole solution contained about 100 mg of itraconazole per L of solution (10% PEG-400 in sterile water) and was prepared as described herein. […] Each patient reported marked improvement in symptoms within two weeks of starting the itraconazole irrigations (symptom scores: -1 to +2 and -1 to +1).
After treatment with itraconazole, that patient reported symptom improvement (symptom score: from -1 to 0).

[5] = test system: non-invasive fungus-induced rhinosinusitis patients; assay: Patient data collected during a one week period (amphotericin B nasal irrigations); assay type: in vivo, human; parameters: Endoscopy Score B / Endoscopy Score A / Symptom Score B: scale not given here
Excerpt: In addition to patient interviewing, CT scan analysis, visual examination, and fungal culture analysis, two types of evaluations were used to score the success of the treatment: an endoscopic evaluation and a patient symptom evaluation. These evaluations were scored as follows:
Only previously seen patients that were instructed to use the antifungal amphotericin B nasal irrigations were entered into this study.
During a one week period, twenty patients returned to the physician's office (Table II). The average age of the returning patients was 47 years (range 16-74 years). The patients were using the amphotericin B irrigations for an average duration of about six months (range 1-16 months). […] In addition, some patients were using topical and systemic steroid therapy. Further, some patients were using an antibiotic nasal irrigation in addition to the antifungal irrigations. The antibacterial solution contained 80 mg gentamicin per L saline (Wilson's solution). Some patients mixed the antibacterial solution with the antifungal solution and then performed the nasal irrigations while others used each solution separately in a sequential manner. Some patients also had other diseases including asthma (15 of the 20 patients) and colitis (2 of the 20 patients).

[6] = test system: non-invasive fungus-induced rhinosinusitis patients; assay: Amphotericin B irrigations in patients without previous nasal surgery (Example 3); assay type: in vivo, human
Excerpt: A person was diagnosed with non-invasive fungus-induced rhinosinusitis and instructed to perform amphotericin B irrigations twice a day.
A person was diagnosed with non-invasive fungus-induced rhinosinusitis and instructed to perform amphotericin B irrigations twice a day, which was later increased to four times a day.
A person was diagnosed with non-invasive fungus-induced rhinosinusitis and instructed to perform amphotericin B irrigations twice a day. This patient had been given intramuscular steroid shots every 3 to 8 months with the last shot being administered about seven months prior to starting the amphotericin B irrigations.

[7] = test system: non-invasive fungus-induced rhinosinusitis patients; assay: Amphotericin B nasal irrigation study, three month follow-up (Example 2); assay type: in vivo, human
Excerpt: In addition to patient interviewing, CT scan analysis, visual examination, and fungal culture analysis, two types of evaluations were used to score the success of the treatment: an endoscopic evaluation and a patient symptom evaluation.

[8] = test system: non-invasive fungus-induced rhinosinusitis patient; assay: Eosinophil count in mucosal biopsies after amphotericin B irrigations (Example 4); assay type: in vivo, human
Excerpt: A person was diagnosed with non-invasive fungus-induced rhinosinusitis and instructed to perform amphotericin B irrigations twice a day. After nine months of amphotericin B irrigations, the patient underwent sinus surgery for further improvement. During the surgery mucosal biopsies were collected and the eosinophil count compared to the those obtained from biopsies collected from the patient during a surgery prior to the antifungal treatment.

Candida = assay: MIC, macro broth dilution technique (NCCLS), isolates from rhinosinusitis patients; assay type: cell-based; conditions: 48 h, 48 hour MIC reading, each table line is one isolate
Description: as §1, §2

Penicillium = assay: as above; assay type: cell-based; conditions: 48 h, 48 hour MIC reading, each table line is one isolate
Description: as §1, §2

Cladosporium = assay: as above; assay type: cell-based; conditions: 48 h, 48 hour MIC reading, each table line is one isolate
Description: as §1, §2

[9] = Concentrations of itraconazole in solution by HPLC; assay type: physicochemical; conditions: read-out: Soluble Itraconazole Concentration
Description: Itraconazole formulations were made by dissolving itraconazole into polyethylene glycol (PEG) to form an itraconazole stock solution. […] Typically, PEG 400 was used to dissolve the itraconazole. Once dissolved, the stock solution was filtered to remove any insoluble material. Then, the stock solution was prepared for use by dilution with sterile water. […] One liter of heated (70° C.) PEG-400 was added to the graduated cylinder containing the itraconazole. The mixture was then placed onto a stirring hot plate and maintained at 70° C. for 30 minutes. After 30 minutes, the hot suspension was filtered through a urine stone filter into a glass container and allowed to cool to room temperature. Once cooled, 100 mL of the filtered solution was placed into an empty plastic bottle. Then, 900 mL of sterile water was added and the solution mixed. Once mixed, one drop of flavoring was added (peppermint oil). […] The following concentrations of itraconazole were determined for each indicated solution by HPLC (Table III).

[10] = test system: patient with asthma symptoms; assay: Itraconazole nasal irrigation in an asthma patient, pulmonary function (Example 8); assay type: in vivo, human; conditions: before antifungal treatment
Description: Sputum and nasal-paranasal mucus samples were collected and analyzed.
The concentration of the itraconazole solution was about 100 mg per liter. After a few weeks, the patient took their last course of systemic steroids. About two months after stopping the systemic steroids, the patient also stopped using the topical steroids as well as the bronchodilator.

[11] = Oral itraconazole capsule, drug remaining in the bowel lumen (Example 10); assay type: in vivo, human; conditions: 100 mg capsule before bedtime, two hours after last meal, without cola
Excerpt: Three out of five consecutive patients with chronic rhinosinusitis reported having a history of colitis. […] Each patient was instructed to take the capsule before bedtime a minimum of two hours after their last meal and without any cola. Food and cola beverages increase absorption of the drug.

[12] = after antifungal treatment (1-16 months, 1-2 x day), each table line is one patient
[13] = before antifungal treatment, each table line is one patient
[14] = patient symptom evaluation after treatment, 53 patients
[15] = sixteen days after starting the itraconazole irrigations

SMILES: C[C@@H]1[C@H](O)[C@@H](C)/C=C/C=C/C=C/C=C/C=C/C=C/C=C/[C@H](O[C@@H]2O[C@H](C)[C@@H](O)[C@H](N)[C@@H]2O)C[C@@H]2O[C@](O)(C[C@@H](O)C[C@@H](O)[C@H](O)CC[C@@H](O)C[C@@H](O)CC(=O)O[C@H]1C)C[C@H](O)[C@H]2C(=O)O [Amphotericin B, amphotericin B]
MIC (Trichoderma): 4 µg/mL (≈ 4.33 µM)
MIC (Geotrichum): 0.1 µg/mL (≈ 0.108 µM)
susceptibility of fungal organisms in mucus of non-responding patients [1]: resistant
RAST reading to Alternaria ([2]; after right-side surgery and treatment of both sides for about seven weeks): 4.47 KU/L
clinical status ([2]; after treatment of both sides for about seven weeks): symptom-free
asthmatic patients declaring an improvement or complete elimination of asthma symptoms ([3]; after three months of antifungal treatment, 37 asthmatic patients): 28 of the 37
patients with improved pulmonary function (pulmonary function test before and after) ([3]; four patients tested): all four
patients who stopped taking their asthma medication ([3]; of the 28 patients no longer exhibiting asthma symptoms): 26 of the 28
adverse local reaction to nasal irrigations [4]: burning sensation
Endoscopy Score A [5, 12]: 0 (10×) and 3 (5×) and 1 (2×)
Symptom Score A [5, 12]: +1 (6×) and +2 (6×) and 0 (6×) and −2 and 1
Endoscopy Score B [5, 13]: 1 (3×) and 2 (5×) and 3 (10×) and 0
Symptom Score B [5, 13]: −1 (14×) and −2 (6×)
endoscopic evaluation of rhinosinusitis condition ([5]; most of twenty patients): observable improvement
endoscopic score after treatment ([6]; amphotericin B irrigations twice (to four times) a day for four to sixteen months): 0
symptom score before treatment ([6]; patients without previous nasal surgery): −1
patients who went from endoscopic evaluation stage 2 or 3 to stage 0 ([7]; about 20 mL amphotericin B solution (about 100 mg per liter) per nostril, two to four times daily, after three months, 53 patients): 33 of the 53
CT scan finding ([7]; one patient with bilateral rhinosinusitis, 20 mL (100 mg/L) per nostril two times daily, after four months): complete disappearance of opacity and symptoms characteristic of rhinosinusitis
patients giving themselves symptom stage 0 [7, 14]: six of the 53
patients giving themselves symptom stage 1 [7, 14]: three of the 53
patients giving themselves symptom stage 2 [7, 14]: 44 of the 53
patients who did not respond to the treatment (endoscopic evaluation) ([7]; same regimen, after three months, 53 patients): nine
number of different fungal species in mucus after treatment ([7]; several patients, mucus cultured before and after antifungal treatment): remarkably reduced
eosinophil count in mucosal biopsies ([8]; all the sinuses except the frontal, after nine months of irrigations twice a day): < 5%
eosinophil count in the frontal sinus biopsy ([8]; frontal sinus (obstructed, irrigation presumably did not reach it), after nine months): 10%

SMILES: CCC(C)n1ncn(-c2ccc(N3CCN(c4ccc(OCC5COC(Cn6cncn6)(c6ccc(Cl)cc6Cl)O5)cc4)CC3)cc2)c1=O (centres unmarked) [Itraconazole, itraconazole]
MIC (Candida): 0.03 µg/mL (≈ 0.0425 µM)
MIC (Penicillium): 0.5 µg/mL (≈ 0.709 µM)
MIC (Cladosporium): 0.125 µg/mL (≈ 0.177 µM)
solubility ([9]; PEG-400, organic solvent or mixture, 500 mg Itraconazole powder AS into 250 mL PEG-400 (stock solution)): 1950 µg/mL (≈ 2760 µM)
solubility at 30 min ([9]; PEG-400, organic solvent or mixture, 2000 mg Itraconazole from capsules into 1 L PEG-400 (stock solution)): 1840 µg/mL (≈ 2610 µM)
solubility ([9]; PEG-400/sterile water solution, aqueous with cosolvent or surfactant or cyclodextrin, kinetic from dmso stock, 100 mL capsule stock solution diluted with 900 mL sterile water): 113 µg/mL (≈ 160 µM)
solubility ([9]; PEG-400/sterile water solution, aqueous with cosolvent or surfactant or cyclodextrin, kinetic from dmso stock, 100 mL capsule stock solution plus 25 mL PEG-400 diluted with 875 mL sterile water): 155 µg/mL
solubility ([9]; PEG-400/sterile water solution, aqueous with cosolvent or surfactant or cyclodextrin, kinetic from dmso stock, 100 mL capsule stock solution plus 150 mL PEG-400 diluted with 750 mL sterile water): 179 µg/mL
solubility ([9]; PEG-400/sterile water solution, aqueous with cosolvent or surfactant or cyclodextrin, kinetic from dmso stock, 100 mL powder AS stock solution diluted with 900 mL sterile water): 85 µg/mL (≈ 120 µM)
forced expiratory volume in 1 second (FEV1) before treatment [10]: 3.34 L
forced vital capacity (FVC) before treatment [10]: 3.99 L
maximal forced expiratory flow (FEFmax) before treatment [10]: 9.1 liter per second
maximum voluntary ventilation (MVV) before treatment [10]: 119 liter per minute
symptom score before itraconazole irrigations ([4]; itraconazole solution about 100 mg per L (10% PEG-400 in sterile water)): -1
endoscopic score, left side, before ([4]; one patient): 1
endoscopic score, right side, before ([4]; one patient): 1
endoscopic score, left side, after [4, 15]: 1
endoscopic score, right side, after [4, 15]: 0
adverse local reaction to nasal irrigations [4]: did not have any adverse local reaction
itraconazole that should remain in the bowel lumen [11]: about 50%

MIC (Trichoderma; read-out: MIC): 50 µg/mL (≈ 94.1 µM)
MIC (Geotrichum; read-out: MIC): 0.05 µg/mL (≈ 0.0941 µM)
SMILES: CC(=O)N1CCN(c2ccc(OCC3COC(Cn4ccnc4)(c4ccc(Cl)cc4Cl)O3)cc2)CC1 (centres unmarked) [Ketoconazole, ketoconazole]
